Data published in patent US20230119479A1, “A HISTONE DEACETYLASE INHIBITOR HAVING A NITROGEN-CONTAINING AROMATIC HETEROCYCLYL GROUP” (SHIONOGI & CO., LTD., priority 2019, published 2023).

Columns and labels:
[1] = target: T1, HDAC2 Human recombinant C-terminal FLAG-tag (Homo sapiens, UniProt Q92769); assay: Measurement of HDAC2 enzyme inhibitory activity (HTRF); type: biochemical; details: recombinant HDAC2, H3K9ac peptide, 3 hours room temperature; read-out: HDAC2 IC50
T1 construct: FLAG (C); purchased BPS Bioscience 50052
How it was run: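 Compounds were tested at 8 points in 3-fold dilutions from 99 μM final (n=2) against FLAG-tagged HDAC2 with biotinylated H3K9ac (1-21) peptide (0.6 μM as added). The reaction ran 3 h at room temperature in Tris pH 8.0 buffer, then was stopped with SAHA. Deacetylated product was detected by HTRF (Eu-anti-H3K9me0 antibody, streptavidin-XL665) as the 665/615-620 nm ratio.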

[2] = Platelet toxicity test using human blood progenitor cells (WST); type: cell-based; details: human bone marrow CD34+ progenitor cells, maximum concentration 25 μM
Procedure: Test Example 2: Platelet Toxicity Test Using Human Blood Progenitor Cells
Human bone marrow CD34+ progenitor cells (Lonza, 2M-101B) stored at −80° C. were thawed, spun down at 150 g for 10 minutes at 20° C., and a medium (StemSpan Expansion Supplement, STEM CELL TECHNOLOGIES, ST-02696) to which cytokines (StemSpan SFEM II, STEM CELL TECHNOLOGIES, ST-09655) was added was added to adjust to 2×10^4/well, the mixture was seeded in 12well non-coat dish (Corning, 3513), was incubated for 10 days at 37° C., 5% CO2. After 10 days, the cells were collected and spun down at 150 g for 10 minutes at 20° C., and a medium (StemSpan Expansion Supplement) containing cytokines (StemSpan SFEM II) was added so that the number of cells became 2×10^5 cells/ml. 50 μl of the cell suspension was seeded to each well of a 96-well plate (Corning, 3596) and allowed to stand overnight in an incubator at 37° C., 5% CO2. The next day, 50 μl of the test compound was treated to each well and allowed to stand for 48 hours in the incubator at 37° C., 5% CO2 (n=2). At this time, the test compound dissolved in 100% DMSO was serially diluted with DMSO at a 3-fold ratio, and then a medium containing cytokine was added to adjust the final concentration to 25, 8.33, 2.78, 0.93, 0.31, 0.1 μM. After that, 10 μl of WST (Cell count reagent SF, Nacalai Tesque Inc., 07553-44) was added to each well, and the mixture was allowed to stand in the incubator for 4 hours at 37° C., 5% CO2, and then the multi-label reader 2030 ARVO X4 (PerkinElmer) was used to measure the absorbance. At this time, the absorbance at 450 nm and the absorbance at 620 nm were obtained, and the difference between 450 nm and 620 nm was used as the measured value. The measured values were analyzed by Excel and TIBCO Spotfire, and IC50 values were calculated. At this time, for control (−), the well without cells was set as n=6 for one row, and the average value was calculated, and for control (+), the well in which DMSO was added to the cells so as to have the same concentration as the compound treatment group was set as n=6 for one row, and the average value was calculated and corrected for each plate. For the test compound, the average value of n=2 was used.

[3] = BA test (oral absorption); type: in vivo; details: plasma; mice or rats; oral vs intravenous administration
Procedure: Materials and methods for experiments to evaluate oral absorption (1) Experimental animals: mice or rats were used. (2) Rearing condition: mice or rats were allowed free access to solid feed and sterilized tap water. (3) Setting of dosage and grouping: Oral administration and intravenous administration were performed with the predetermined dosage. Grouping was set as below. (Dosage was changed per compound)
Oral administration 2 to 60 μmol/kg or 1 to 30 mg/kg (n=2 to 3)
Intravenous administration 1 to 30 μmol/kg or 0.5 to 10 mg/kg (n=2 to 3)
(4) Preparation of administration solutions: Oral administration was performed as suspension or solution. Intravenous administration was performed after solubilization. (5) Routes of administration: Oral administration was performed mandatory into the stomach by oral sonde. Intravenous administration was performed from caudal vein by syringes with needle. (6) Evaluation items: Blood was collected serially and concentration of a compound of the present invention in plasma was measured by LC/MS/MS. (7) Statistical analysis: About transition of concentration of a compound of the present invention in plasma, the area under the plasma concentration versus time curve (AUC) was calculated by non-linear least-squares method program, and bioavailability (BA) of a compound of the present invention was calculated from dosages and AUCs of the oral administration group and the intravenous administration group. The dilution concentration or the dilution solvent were changed as necessary.

[4] = target: T2, human ether-a-go-go related gene (hERG) channel (Homo sapiens, UniProt Q12809); assay: hERG test (whole cell patch clamp); type: cell-based; details: CHO cells expressing hERG; concentration not given
T2 construct: expressed in transfected cells; host or cells: CHO cells
Source text: For the purpose of assessing risk of an electrocardiogram QT interval prolongation of the compound of the present invention, effects of the compound of the present invention on delayed rectifier K^+ current (IKr), which plays an important role in the ventricular repolarization process, was studied using CHO cells expressing human ether-a-go-go related gene (hERG) channel.
After a cell was retained at a membrane potential of −80 mV by whole cell patch clamp method using an automated patch clamp system (QPatch; Sophion Bioscience A/S) and gave a leak potential of −50 mV, IKr induced by depolarization pulse stimulation at +20 mV for 2 seconds, and further, repolarization pulse stimulation at −50 mV for 2 seconds, was recorded. A vehicle, which was the 0.1% dimethyle sulfoxide solution in extracellular solution (NaCl: 145 mmol/L, KCl: 4 mmol/L, CaCl2: 2 mmol/L, MgCl2: 1 mmol/L, glucose:10 mmol/L, HEPES (4-(2-hydroxyethyl)-1-piperazineethanesulfonic acid): 10 mmol/L, pH7.4), or the compound of the present invention had been dissolved at an objective concentration in the extracellular solution was applied to the cell at room temperature for 7 minutes or more. From the recording IKr, an absolute value of the tail peak current was measured based on the current value at the resting membrane potential using analysis software (QPatch assay software; Sophion Bioscience A/S). Further, the % inhibition of tail peak current for the compound of the present invention relative to the tail peak current after application of the vehicle was calculated to assess influence of the compound of the present invention on IKr. The dilution concentration and dilution solvent were changed as necessary.

T2 sequence (Q12809 whole entry): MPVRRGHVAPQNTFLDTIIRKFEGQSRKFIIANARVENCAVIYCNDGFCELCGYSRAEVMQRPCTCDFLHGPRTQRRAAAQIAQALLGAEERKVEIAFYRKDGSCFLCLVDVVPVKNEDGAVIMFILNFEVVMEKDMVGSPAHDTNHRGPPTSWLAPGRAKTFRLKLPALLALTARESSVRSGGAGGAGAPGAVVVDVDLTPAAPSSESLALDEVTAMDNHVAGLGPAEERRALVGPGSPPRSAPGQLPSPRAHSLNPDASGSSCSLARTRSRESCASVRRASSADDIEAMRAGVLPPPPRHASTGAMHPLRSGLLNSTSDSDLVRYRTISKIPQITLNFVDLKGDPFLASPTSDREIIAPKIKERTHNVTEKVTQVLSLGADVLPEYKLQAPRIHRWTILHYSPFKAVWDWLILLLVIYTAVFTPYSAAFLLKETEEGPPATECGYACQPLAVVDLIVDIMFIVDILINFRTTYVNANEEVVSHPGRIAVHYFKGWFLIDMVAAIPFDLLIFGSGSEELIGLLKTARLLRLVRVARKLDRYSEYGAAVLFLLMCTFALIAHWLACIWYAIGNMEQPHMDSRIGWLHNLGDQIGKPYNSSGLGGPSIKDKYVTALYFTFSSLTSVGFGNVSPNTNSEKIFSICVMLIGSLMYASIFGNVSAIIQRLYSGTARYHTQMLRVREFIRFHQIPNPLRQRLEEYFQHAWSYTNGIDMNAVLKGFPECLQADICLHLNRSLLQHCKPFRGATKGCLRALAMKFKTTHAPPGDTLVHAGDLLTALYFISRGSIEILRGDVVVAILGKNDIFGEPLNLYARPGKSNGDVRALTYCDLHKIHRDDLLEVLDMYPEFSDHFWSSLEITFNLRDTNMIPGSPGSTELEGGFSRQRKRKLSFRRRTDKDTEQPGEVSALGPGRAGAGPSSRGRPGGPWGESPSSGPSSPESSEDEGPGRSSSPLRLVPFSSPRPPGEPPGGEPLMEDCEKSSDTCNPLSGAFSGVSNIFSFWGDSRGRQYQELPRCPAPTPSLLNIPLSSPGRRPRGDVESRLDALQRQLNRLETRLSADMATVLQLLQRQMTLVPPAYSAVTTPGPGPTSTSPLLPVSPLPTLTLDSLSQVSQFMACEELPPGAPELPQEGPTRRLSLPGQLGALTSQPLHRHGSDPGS
T1 sequence (Q92769 whole entry): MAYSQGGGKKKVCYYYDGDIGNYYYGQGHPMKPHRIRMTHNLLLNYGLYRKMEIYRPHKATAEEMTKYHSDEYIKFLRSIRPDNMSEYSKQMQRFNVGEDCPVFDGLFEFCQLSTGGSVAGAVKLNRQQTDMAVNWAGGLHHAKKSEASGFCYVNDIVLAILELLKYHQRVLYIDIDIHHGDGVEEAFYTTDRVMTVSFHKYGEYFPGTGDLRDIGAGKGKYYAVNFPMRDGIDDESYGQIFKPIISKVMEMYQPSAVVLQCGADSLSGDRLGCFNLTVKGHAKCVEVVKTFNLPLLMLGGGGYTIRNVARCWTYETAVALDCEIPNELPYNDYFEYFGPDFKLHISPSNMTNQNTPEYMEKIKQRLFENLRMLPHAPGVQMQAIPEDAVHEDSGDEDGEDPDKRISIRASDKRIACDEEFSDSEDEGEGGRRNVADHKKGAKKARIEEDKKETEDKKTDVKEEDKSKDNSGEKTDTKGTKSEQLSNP

Row | IC50 [1] | bioavailability [3] | Compound | IC50 at 48 h [2] | % inhibition of tail peak current (IKr) [4]
1 | 0.054 µM | 35.6% | Cn1cc(-c2cnc(C(=O)Nc3cc(-c4cccs4)ccc3N)cn2)cn1 [Compound I-006] | > 25 µM | 14.3%
2 | 0.31 µM | 33.8% | Cn1cc(-c2ccc(C(=O)Nc3cc(-c4cccs4)ccc3N)nc2)cn1 [Compound I-003] | > 25 µM | 17.1%
